Legend:
[1] = DRUGMATRIX: GABAA, Muscimol, Central radioligand binding (ligand: [3H] Muscimol); format: cell membranes, Rattus norvegicus, Wistar, Brain, Membrane; conditions: Not Active = under 50% inhibition at 10 µM
[2] = DRUGMATRIX: Glutamate, Kainate radioligand binding (ligand: [3H] Kainic acid); format: cell membranes, Rattus norvegicus, Wistar, Brain, Membrane; conditions: Not Active = under 50% inhibition at 10 µM
[3] = DRUGMATRIX: Glutamate, NMDA, Phencyclidine radioligand binding (ligand: [3H] TCP); format: cell membranes, Rattus norvegicus, Wistar, Cerebral cortex, Membrane; conditions: Not Active = under 50% inhibition at 10 µM
[4] = molecular target: T1, Cysteinyl leukotriene receptor 1 (Homo sapiens, UniProt Q9Y271); format: cell membranes, Membrane; conditions: cho-k1; note: in other assays of this panel Not Active means under 50% inhibition at 10 µM
T1 sequence (Q9Y271 whole entry): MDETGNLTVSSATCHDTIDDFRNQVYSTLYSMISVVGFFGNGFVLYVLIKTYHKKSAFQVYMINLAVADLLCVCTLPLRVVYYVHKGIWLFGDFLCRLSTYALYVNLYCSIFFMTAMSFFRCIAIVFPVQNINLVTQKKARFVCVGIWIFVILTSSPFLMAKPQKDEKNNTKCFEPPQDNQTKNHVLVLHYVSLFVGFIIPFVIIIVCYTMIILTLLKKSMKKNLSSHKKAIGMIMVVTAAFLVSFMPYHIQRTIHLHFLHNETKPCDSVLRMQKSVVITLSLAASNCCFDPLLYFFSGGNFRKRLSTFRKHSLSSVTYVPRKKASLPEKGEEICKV

[5] = molecular target: cGMP-specific 3',5'-cyclic phosphodiesterase (Homo sapiens, UniProt O76074); assay: DRUGMATRIX: Phosphodiesterase PDE5 enzyme inhibition (substrate: [3H]cGMP + cGMP); format: tissue-based, Platelet; conditions: platelet; Not Active = under 50% inhibition at 10 µM
[6] = molecular target: Mitogen-activated protein kinase 1 (Homo sapiens, UniProt P28482); assay: DRUGMATRIX: Protein Serine/Threonine Kinase, ERK2 enzyme inhibition (substrate: Myelin Basic Protein); parameters: species or system Escherichia coli; conditions: Not Active = under 50% inhibition at 10 µM
Sequence of Mitogen-activated protein kinase 1 (P28482 whole entry): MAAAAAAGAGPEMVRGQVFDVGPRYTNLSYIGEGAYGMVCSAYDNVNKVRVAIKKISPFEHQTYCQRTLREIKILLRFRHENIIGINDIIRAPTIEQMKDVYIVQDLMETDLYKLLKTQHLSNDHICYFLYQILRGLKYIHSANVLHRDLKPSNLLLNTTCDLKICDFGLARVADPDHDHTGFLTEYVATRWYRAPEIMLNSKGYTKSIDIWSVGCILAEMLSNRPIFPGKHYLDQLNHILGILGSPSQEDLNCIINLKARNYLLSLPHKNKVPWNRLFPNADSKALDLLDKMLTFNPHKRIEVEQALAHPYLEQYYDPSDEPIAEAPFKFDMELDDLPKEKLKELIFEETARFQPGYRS

[7] = molecular target: Tyrosine-protein kinase Fyn (Homo sapiens, UniProt P06241); assay: biochemical; format: cell-based, Insect cells; conditions: insect cells;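 note: enzymatic inhibition of Fyn kinase activity measured with Poly(Glu:Tyr) as the phosphorylation substrate; in other assays of this panel Not Active means under 50% inhibition at 10 µM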
Sequence of Tyrosine-protein kinase Fyn (P06241 whole entry): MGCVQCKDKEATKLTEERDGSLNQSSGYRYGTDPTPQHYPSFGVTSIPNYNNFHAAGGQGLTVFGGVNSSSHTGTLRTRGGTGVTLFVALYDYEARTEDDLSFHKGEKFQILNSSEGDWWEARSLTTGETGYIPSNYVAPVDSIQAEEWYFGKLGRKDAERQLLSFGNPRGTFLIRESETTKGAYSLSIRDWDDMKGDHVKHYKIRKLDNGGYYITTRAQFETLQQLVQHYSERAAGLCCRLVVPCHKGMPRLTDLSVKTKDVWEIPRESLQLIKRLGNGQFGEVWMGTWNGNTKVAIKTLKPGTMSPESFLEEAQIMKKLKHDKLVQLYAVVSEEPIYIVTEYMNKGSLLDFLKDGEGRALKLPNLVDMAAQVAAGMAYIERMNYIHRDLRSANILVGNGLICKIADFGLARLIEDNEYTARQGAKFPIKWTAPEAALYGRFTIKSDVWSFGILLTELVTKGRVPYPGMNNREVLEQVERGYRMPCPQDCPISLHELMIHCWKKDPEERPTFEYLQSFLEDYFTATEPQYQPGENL

Cytochrome P450 2C9 = Cytochrome P450 2C9 (Homo sapiens, UniProt P11712); conditions: bti-tn-5b1-4; note: in other assays of this panel Not Active means under 50% inhibition at 10 µM
Sequence of Cytochrome P450 2C9 (P11712 whole entry): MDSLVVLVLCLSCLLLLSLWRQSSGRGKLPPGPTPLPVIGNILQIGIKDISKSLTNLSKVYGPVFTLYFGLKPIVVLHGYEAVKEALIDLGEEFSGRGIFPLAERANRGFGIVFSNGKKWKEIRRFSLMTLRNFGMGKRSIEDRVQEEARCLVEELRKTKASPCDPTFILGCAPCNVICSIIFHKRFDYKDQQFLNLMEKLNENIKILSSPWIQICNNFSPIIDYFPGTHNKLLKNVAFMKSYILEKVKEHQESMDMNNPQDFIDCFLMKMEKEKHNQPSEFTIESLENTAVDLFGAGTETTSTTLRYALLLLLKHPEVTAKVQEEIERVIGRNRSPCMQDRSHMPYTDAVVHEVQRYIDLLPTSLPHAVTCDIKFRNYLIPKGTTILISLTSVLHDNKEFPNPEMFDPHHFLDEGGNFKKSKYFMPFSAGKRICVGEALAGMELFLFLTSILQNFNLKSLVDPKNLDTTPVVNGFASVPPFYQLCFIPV

CC(=O)OCC(=O)[C@@]1(O)CC[C@H]2[C@@H]3CCC4=CC(=O)CC[C@]4(C)[C@@]3(F)[C@@H](O)C[C@@]21C [FLUDROCORTISONE ACETATE]
Not Active: IC50 [1] | Ki [1] | IC50 [2] | Ki [2] | IC50 [3] | Ki [3] | IC50 [4] | IC50 [5] | IC50 [6] | IC50 [7] | IC50 (Cytochrome P450 2C9) | Ki (Cytochrome P450 2C9)

CN(C)C(=O)Oc1cccc([N+](C)(C)C)c1.[Br-] [NEOSTIGMINE BROMIDE]
Not Active: IC50 [1] | Ki [1] | IC50 [2] | Ki [2] | IC50 [3] | Ki [3] | IC50 [4] | IC50 [5] | IC50 [6] | IC50 [7] | IC50 (Cytochrome P450 2C9) | Ki (Cytochrome P450 2C9)

C[C@]12CC[C@@H]3c4ccc(O)cc4CC[C@H]3[C@@H]1C[C@@H](O)[C@@H]2O [ESTRIOL]
Not Active: IC50 [1] | Ki [1] | IC50 [2] | Ki [2] | IC50 [3] | Ki [3] | IC50 [4] | IC50 [5] | IC50 [6] | IC50 [7] | IC50 (Cytochrome P450 2C9) | Ki (Cytochrome P450 2C9)

CCN(CC)CCNC(=O)c1ccc(N)cc1 [PROCAINAMIDE]
Not Active: IC50 [1] | Ki [1] | IC50 [2] | Ki [2] | IC50 [3] | Ki [3] | IC50 [4] | IC50 [5] | IC50 [6] | IC50 [7] | IC50 (Cytochrome P450 2C9) | Ki (Cytochrome P450 2C9)

O=C(O)P(=O)(O)O [FOSCARNET]
Not Active: IC50 [1] | Ki [1] | IC50 [2] | Ki [2] | IC50 [3] | Ki [3] | IC50 [4] | IC50 [5] | IC50 [6] | IC50 [7] | IC50 (Cytochrome P450 2C9) | Ki (Cytochrome P450 2C9)

C[C@H]1[C@H](NC(=O)/C(=N\OC(C)(C)C(=O)O)c2csc(N)n2)C(=O)N1S(=O)(=O)O [AZTREONAM]
Not Active: IC50 [1] | Ki [1] | IC50 [2] | Ki [2] | IC50 [3] | Ki [3] | IC50 [4] | IC50 [5] | IC50 [6] | IC50 [7] | IC50 (Cytochrome P450 2C9) | Ki (Cytochrome P450 2C9)

CN1C[C@@H]2C[C@H]1CN2c1cc2c(cc1F)c(=O)c(C(=O)O)cn2C1CC1 [DANOFLOXACIN]
Not Active: IC50 [1] | Ki [1] | IC50 [2] | Ki [2] | IC50 [3] | Ki [3] | IC50 [4] | IC50 [5] | IC50 [6] | IC50 [7] | IC50 (Cytochrome P450 2C9) | Ki (Cytochrome P450 2C9)

CN1CCCC(CN2c3ccccc3Sc3ccccc32)C1 (stereo unspecified) [MEPAZINE]
Not Active: IC50 [1] | Ki [1] | IC50 [2] | Ki [2] | IC50 [3] | Ki [3] | IC50 [4] | IC50 [5] | IC50 [6] | IC50 [7] | IC50 (Cytochrome P450 2C9) | Ki (Cytochrome P450 2C9)

NCCCNCCSP(=O)(O)O [AMIFOSTINE]
Not Active: IC50 [1] | Ki [1] | IC50 [2] | Ki [2] | IC50 [3] | Ki [3] | IC50 [4] | IC50 [5] | IC50 [6] | IC50 [7] | IC50 (Cytochrome P450 2C9) | Ki (Cytochrome P450 2C9)

CC[C@]1(O)C[C@@H]2CN(CCc3c([nH]c4ccccc34)[C@@](C(=O)OC)(c3cc4c(cc3OC)N(C)[C@H]3[C@@](O)(C(N)=O)[C@H](O)[C@]5(CC)C=CCN6CC[C@]43[C@@H]65)C2)C1 [VINDESINE]
Not Active: IC50 [1] | Ki [1] | IC50 [2] | Ki [2] | IC50 [3] | Ki [3] | IC50 [4] | IC50 [5] | IC50 [6] | IC50 [7] | IC50 (Cytochrome P450 2C9) | Ki (Cytochrome P450 2C9)

CCn1cc(C(=O)O)c(=O)c2cc(F)c(N3CCNC(C)C3)c(F)c21 (stereo unspecified) [LOMEFLOXACIN]
Not Active: IC50 [1] | Ki [1] | IC50 [2] | Ki [2] | IC50 [3] | Ki [3] | IC50 [4] | IC50 [5] | IC50 [6] | IC50 [7] | IC50 (Cytochrome P450 2C9) | Ki (Cytochrome P450 2C9)

CN1CCN(c2c(F)cc3c(=O)c(C(=O)O)cn(CCF)c3c2F)CC1 [FLEROXACIN]
Not Active: IC50 [1] | Ki [1] | IC50 [2] | Ki [2] | IC50 [3] | Ki [3] | IC50 [4] | IC50 [5] | IC50 [6] | IC50 [7] | IC50 (Cytochrome P450 2C9) | Ki (Cytochrome P450 2C9)

C[C@H]1COc2c(N3CCN(C)CC3)c(F)cc3c(=O)c(C(=O)O)cn1c23.C[C@H]1COc2c(N3CCN(C)CC3)c(F)cc3c(=O)c(C(=O)O)cn1c23.O [LEVOFLOXACIN]
Not Active: IC50 [1] | Ki [1] | IC50 [2] | Ki [2] | IC50 [3] | Ki [3] | IC50 [4] | IC50 [5] | IC50 [6] | IC50 [7] | IC50 (Cytochrome P450 2C9) | Ki (Cytochrome P450 2C9)

NC(=O)c1cccc(N)c1 [3-AMINOBENZAMIDE]
Not Active: IC50 [1] | Ki [1] | IC50 [2] | Ki [2] | IC50 [3] | Ki [3] | IC50 [4] | IC50 [5] | IC50 [6] | IC50 [7] | IC50 (Cytochrome P450 2C9) | Ki (Cytochrome P450 2C9)

CC(=O)OC[C@H]1O[C@@H](n2ncc(=O)[nH]c2=O)[C@H](OC(C)=O)[C@@H]1OC(C)=O [AZARIBINE]
Not Active: IC50 [1] | Ki [1] | IC50 [2] | Ki [2] | IC50 [3] | Ki [3] | IC50 [4] | IC50 [5] | IC50 [6] | IC50 [7] | IC50 (Cytochrome P450 2C9) | Ki (Cytochrome P450 2C9)

NC(=O)N1c2ccccc2CC(=O)c2ccccc21 [OXCARBAZEPINE]
Not Active: IC50 [1] | Ki [1] | IC50 [2] | Ki [2] | IC50 [3] | Ki [3] | IC50 [4] | IC50 [5] | IC50 [6] | IC50 [7] | IC50 (Cytochrome P450 2C9) | Ki (Cytochrome P450 2C9)

C#C[C@]1(O)CC[C@H]2[C@@H]3CCC4=CC(=O)CC[C@]4(C)[C@H]3CC[C@@]21C [ETHISTERONE]
Not Active: IC50 [1] | Ki [1] | IC50 [2] | Ki [2] | IC50 [3] | Ki [3] | IC50 [4] | IC50 [5] | IC50 [6] | IC50 [7] | IC50 (Cytochrome P450 2C9) | Ki (Cytochrome P450 2C9)

O=C(O)CCCc1cccs1
Not Active: IC50 [1] | Ki [1] | IC50 [2] | Ki [2] | IC50 [3] | Ki [3] | IC50 [4] | IC50 [5] | IC50 [6] | IC50 [7] | IC50 (Cytochrome P450 2C9) | Ki (Cytochrome P450 2C9)

Source: ChEMBL document CHEMBL1909046, “DrugMatrix in vitro pharmacology data”
